{"source": "patent US20090042894A1", "about": "“NOVEL SPECIES OF ACROCARPOSPORA, A METHOD OF PREPARING IODININ, AND THE USES OF IODININ” (FOOD INDUSTRY RESEARCH AND DEVELOPMENT INSTITUTE, priority 2007, published 2009)", "format_in_all_cases": "cell-based", "conditions_in_all_cases": "iodinin 10 μg/ml, 72 hours", "key": {"[1]": {"tested_on": "MCF-7 (human breast adenocarcinoma)", "assay": "MTT assay, cytotoxic effect on MCF-7 cells", "description": "(§1) Cell growth inhibitory effects were determined by an MTT assay after treating the cell lines with 2, 5, and 10 μg/ml of iodinin for 72 hours. Mean±SE of four independent experiments are shown. The cytotoxic activity of the compound iodinin was tested in vitro in MRC-5, AGS, HeLa, HepG2 and MCF-7 cell lines.\n(§2) MRC-5 (embryonal lung, normal, human, BCRC60023), AGS (Human gastric adenocarcinoma, BCRC 60102), HeLa (Human cervical epithelioid carcinoma, BCRC 60005), HepG2 (Human hepatoblastoma, BCRC 60177), and MCF7 (human breast adenocarcinoma, BCRC 60436) were purchased from BCRC, Food Industry Research and Development Institute, Taiwan. […]\n(§3) The cytotoxic activities of the compound, iodinin, against all cell lines were assayed by a modified MTT [3-(4,5-dimethylthiazole-2-yl)-2,5-diphenyltetrazolium bromide] […] After 3 days of incubation, the cell numbers for each of the cell lines were determined by the following MTT assay: 20 μl of 1 mg/ml of MTT were added to each well of the plates, and the plates were then incubated at 37° C. for 5 hours. Formazan crystals were redissolved in 100 μl of DMSO (Merck) for 10 minutes via shaking, and the plates were read immediately on an ELISA reader (Bio-Tek) at a wavelength of 540 nm (Mosmann, 1983)."}, "[2]": {"tested_on": "MRC-5 (embryonal lung, normal, human)", "assay": "MTT assay, cytotoxic effect on MRC-5 cells", "description": "as §1, §2, §3"}, "[3]": {"tested_on": "HeLa (Human cervical epithelioid carcinoma)", "assay": "MTT assay, cytotoxic effect on HeLa cells", "description": "as §1, §2, §3"}, "[4]": {"tested_on": "AGS (Human gastric adenocarcinoma)", "assay": "MTT assay, cytotoxic effect on AGS cells", "description": "as §1, §2, §3"}, "[5]": {"tested_on": "HepG2 (Human hepatoblastoma)", "assay": "MTT assay, cytotoxic effect on HepG2 cells", "description": "as §1, §2, §3"}}, "data": [{"smiles": "[O-][n+]1c2cccc(O)c2[n+]([O-])c2cccc(O)c21", "note": "[iodinin, 1,6-phenazinediol 5,10-dioxide]", "values": [{"measurement": "percentage of cell survival", "setting": "[1]", "value": 29, "unit": "%"}, {"measurement": "percentage of cell survival", "setting": "[2]", "value": 47, "unit": "%"}, {"measurement": "percentage of cell survival", "setting": "[3]", "value": 26, "unit": "%"}, {"measurement": "percentage of cell survival", "setting": "[4]", "value": 8, "unit": "%"}, {"measurement": "percentage of cell survival", "setting": "[5]", "value": 40, "unit": "%"}]}]}
